Where a SMILES comes first, the peptide text is derived from it. The star is where a group is joined. Myristoyl = CCCCCCCCCCCCCC(=O)*
How the values were obtained:
ACE2 = target: T1, ACE2 (Homo sapiens, UniProt Q9BYF1); experiment: ACE2 activity assay in Caco2 cell lysates; assay type: biochemical; settings: Caco2 cells treated 50 µM 24 h, fluorometric kit, n = 3 technical replicates
T1 construct: endogenous in cells; host or cells: Caco2
Experimental: Caco2 cells were seeded in T75 flasks using complete DMEM medium as above. Cells were treated with NACEi2 (50 µM) for 24 h. 1 × 10^6 cells were harvested, and the ACE2 activity assay was performed using the ACE2 Activity Assay Kit (Fluorometric) (ab273297, Abcam, Cambridge, UK) following the manufacturer’s instructions. ACE2 positive control with diluted ACE2 inhibitor was used as a negative control, and cell lysate with lysis buffer only was used as the background control. Fluorescence (Ex/Em = 320/420 nm) was measured in kinetic mode for 30 min (5 min intervals) at room temperature with a Biotek Synergy H4 Multimode Scanner.

Mouse tolerance studies = assay type: in vivo, C57BL/6 J mice; parameters: Mouse organ weight - i.v. treatment, Brain / Mouse organ weight - i.v. treatment, Heart / Mouse organ weight - i.v. treatment, Kidney / Mouse organ weight - i.v. treatment, Liver / Mouse organ weight - i.v. treatment, Lungs / Mouse organ weight - i.v. treatment, Spleen: unit not given here
Experimental: For NACE2i intraperitoneal (i.p.) studies, female C57BL/6 J mice (6-8 weeks, 3 per group) were treated with a single bolus dose of NACE2i at 3, 10, 30, or 100 mg/kg intraperitoneally for seven days. For NACE2i intravenous (i.v.) studies, male C57BL/6 J mice (6–8 weeks, 5 per group) were treated with daily bolus doses of either sodium chloride 0.9% vehicle or NACE2i at 3, 10, or 30 mg/kg intravenously for six days. For ACE2i studies, male C57BL/6 J mice (6 weeks, 5 per group) were treated with daily bolus doses of either saline vehicle or ACE2i at 10, 30, or 100 mg/kg intravenously or at 3, 10, and 30 mg/kg intranasally (i.n.) for six days. All treatments were administered on day 1, and all mice were observed and weighed daily prior to being euthanized for organ examination. All mice were purchased from the Animal Resources Centre (Canning Vale, Western Australia, Australia) and studies were carried out by Agilex Biolabs (St Lucia, Queensland, Australia). Animals were maintained in housing rooms under controlled environmental conditions: individually ventilated cages (IVCs) with a 12/12 light/dark cycle. The ambient temperature is set to 20–25 °C and relative humidity at 30-70% rH. The University of Queensland Animal Ethics Committee assessed and approved all studies (project code 2021/AE000659).

T1 sequence (Q9BYF1 18-805): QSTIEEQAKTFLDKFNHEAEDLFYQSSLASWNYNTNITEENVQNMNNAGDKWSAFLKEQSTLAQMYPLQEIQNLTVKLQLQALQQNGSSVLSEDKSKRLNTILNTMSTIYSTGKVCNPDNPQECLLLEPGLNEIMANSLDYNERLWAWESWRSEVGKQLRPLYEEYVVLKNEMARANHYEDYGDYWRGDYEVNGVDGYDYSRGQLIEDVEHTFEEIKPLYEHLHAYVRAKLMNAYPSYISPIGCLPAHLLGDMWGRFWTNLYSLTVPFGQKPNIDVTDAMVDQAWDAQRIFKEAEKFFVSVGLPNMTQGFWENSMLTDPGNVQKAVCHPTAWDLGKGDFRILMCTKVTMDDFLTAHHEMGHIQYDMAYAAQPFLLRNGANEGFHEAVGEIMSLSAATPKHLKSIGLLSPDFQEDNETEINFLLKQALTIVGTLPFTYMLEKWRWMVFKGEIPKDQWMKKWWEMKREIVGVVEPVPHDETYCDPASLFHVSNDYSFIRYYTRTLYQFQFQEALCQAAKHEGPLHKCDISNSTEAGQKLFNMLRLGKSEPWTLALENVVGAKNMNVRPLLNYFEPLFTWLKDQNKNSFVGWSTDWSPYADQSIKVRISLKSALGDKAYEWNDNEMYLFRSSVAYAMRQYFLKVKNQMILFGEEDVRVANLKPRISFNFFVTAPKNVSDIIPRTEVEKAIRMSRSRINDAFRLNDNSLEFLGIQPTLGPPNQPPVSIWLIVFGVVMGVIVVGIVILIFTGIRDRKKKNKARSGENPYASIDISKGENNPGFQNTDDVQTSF

SMILES: CCCCCCCCCCCCCC(=O)N[C@H](C(=O)NCC(=O)N[C@H](C(=O)N[C@@H](CCCNC(=N)N)C(=O)N[C@@H](CC(=O)O)C(=O)N[C@@H](CCCNC(=N)N)C(=O)N[C@@H](CCCCN)C(=O)N[C@@H](CCCCN)C(=O)N[C@@H](CCCCN)C(=O)N[C@@H](CC(N)=O)C(=O)N[C@@H](CCCCN)C(=O)N[C@@H](C)C(=O)N[C@@H](CCCNC(=N)N)C(=O)N[C@@H](CO)C(=O)O)[C@@H](C)CC)[C@@H](C)O [NACE2i] (Myristoyl-TGIRDRKKKNKARS-OH)
- ACE2 enzymatic activity (ACE2): no impact
- Diarrhoea - Mild (number of animals) (Mouse tolerance studies; IP route, 3 mg/kg, n = 3): 0
- No abnormalities (number of animals) (Mouse tolerance studies; IP route, 3 mg/kg, n = 3): 3
- Palpebral Closure - Mild (number of animals) (Mouse tolerance studies; IP route, 3 mg/kg, n = 3): 0
- Piloerection - Mild (number of animals) (Mouse tolerance studies; IP route, 3 mg/kg, n = 3): 0
- Reduced Activity - Mild (number of animals) (Mouse tolerance studies; IP route, 3 mg/kg, n = 3): 0
- Reduced Activity - Moderate (number of animals) (Mouse tolerance studies; IP route, 3 mg/kg, n = 3): 0
- Right limb raised - Mild (number of animals) (Mouse tolerance studies; IP route, 3 mg/kg, n = 3): 0
- Diarrhoea - Mild (number of animals) (Mouse tolerance studies; IP route, 10 mg/kg, n = 3): 0
- No abnormalities (number of animals) (Mouse tolerance studies; IP route, 10 mg/kg, n = 3): 3
- Palpebral Closure - Mild (number of animals) (Mouse tolerance studies; IP route, 10 mg/kg, n = 3): 0
- Piloerection - Mild (number of animals) (Mouse tolerance studies; IP route, 10 mg/kg, n = 3): 0
- Reduced Activity - Mild (number of animals) (Mouse tolerance studies; IP route, 10 mg/kg, n = 3): 0
- Reduced Activity - Moderate (number of animals) (Mouse tolerance studies; IP route, 10 mg/kg, n = 3): 0
- Right limb raised - Mild (number of animals) (Mouse tolerance studies; IP route, 10 mg/kg, n = 3): 0
- Diarrhoea - Mild (number of animals) (Mouse tolerance studies; IP route, 30 mg/kg, n = 3): 0
- No abnormalities (number of animals) (Mouse tolerance studies; IP route, 30 mg/kg, n = 3): 0
- Palpebral Closure - Mild (number of animals) (Mouse tolerance studies; IP route, 30 mg/kg, n = 3): 1
- Piloerection - Mild (number of animals) (Mouse tolerance studies; IP route, 30 mg/kg, n = 3): 0
- Reduced Activity - Mild (number of animals) (Mouse tolerance studies; IP route, 30 mg/kg, n = 3): 3
- Reduced Activity - Moderate (number of animals) (Mouse tolerance studies; IP route, 30 mg/kg, n = 3): 0
- Right limb raised - Mild (number of animals) (Mouse tolerance studies; IP route, 30 mg/kg, n = 3): 3
- Diarrhoea - Mild (number of animals) (Mouse tolerance studies; IP route, 100 mg/kg, n = 3): 1
- No abnormalities (number of animals) (Mouse tolerance studies; IP route, 100 mg/kg, n = 3): 0
- Palpebral Closure - Mild (number of animals) (Mouse tolerance studies; IP route, 100 mg/kg, n = 3): 0
- Piloerection - Mild (number of animals) (Mouse tolerance studies; IP route, 100 mg/kg, n = 3): 2
- Reduced Activity - Mild (number of animals) (Mouse tolerance studies; IP route, 100 mg/kg, n = 3): 2
- Reduced Activity - Moderate (number of animals) (Mouse tolerance studies; IP route, 100 mg/kg, n = 3): 2
- Right limb raised - Mild (number of animals) (Mouse tolerance studies; IP route, 100 mg/kg, n = 3): 0
- Hunched Posture - Mild (number of animals) (Mouse tolerance studies; IV route, 3 mg/kg, n = 5): 0
- No abnormalities (number of animals) (Mouse tolerance studies; IV route, 3 mg/kg, n = 5): 5
- Palpebral Closure - Mild (number of animals) (Mouse tolerance studies; IV route, 3 mg/kg, n = 5): 0
- Piloerection - Mild (number of animals) (Mouse tolerance studies; IV route, 3 mg/kg, n = 5): 0
- Reduced Activity - Mild (number of animals) (Mouse tolerance studies; IV route, 3 mg/kg, n = 5): 0
- Reduced Activity - Moderate (number of animals) (Mouse tolerance studies; IV route, 3 mg/kg, n = 5): 0
- Tremors - Mild (number of animals) (Mouse tolerance studies; IV route, 3 mg/kg, n = 5): 0
- Hunched Posture - Mild (number of animals) (Mouse tolerance studies; IV route, 10 mg/kg, n = 5): 0
- No abnormalities (number of animals) (Mouse tolerance studies; IV route, 10 mg/kg, n = 5): 5
- Palpebral Closure - Mild (number of animals) (Mouse tolerance studies; IV route, 10 mg/kg, n = 5): 0
- Piloerection - Mild (number of animals) (Mouse tolerance studies; IV route, 10 mg/kg, n = 5): 0
- Reduced Activity - Mild (number of animals) (Mouse tolerance studies; IV route, 10 mg/kg, n = 5): 0
- Reduced Activity - Moderate (number of animals) (Mouse tolerance studies; IV route, 10 mg/kg, n = 5): 0
- Tremors - Mild (number of animals) (Mouse tolerance studies; IV route, 10 mg/kg, n = 5): 0
- Hunched Posture - Mild (number of animals) (Mouse tolerance studies; IV route, 30 mg/kg, n = 5): 1
- No abnormalities (number of animals) (Mouse tolerance studies; IV route, 30 mg/kg, n = 5): 0
- Palpebral Closure - Mild (number of animals) (Mouse tolerance studies; IV route, 30 mg/kg, n = 5): 1
- Piloerection - Mild (number of animals) (Mouse tolerance studies; IV route, 30 mg/kg, n = 5): 0
- Reduced Activity - Mild (number of animals) (Mouse tolerance studies; IV route, 30 mg/kg, n = 5): 4
- Reduced Activity - Moderate (number of animals) (Mouse tolerance studies; IV route, 30 mg/kg, n = 5): 5
- Tremors - Mild (number of animals) (Mouse tolerance studies; IV route, 30 mg/kg, n = 5): 5
- Mouse organ weight - i.v. treatment, Brain (Mouse tolerance studies; S 1f, i.v. 3 mg/kg, mean, N 5): 452.46
- Mouse organ weight - i.v. treatment, Heart (Mouse tolerance studies; S 1f, i.v. 3 mg/kg, mean, N 5): 113.88
- Mouse organ weight - i.v. treatment, Kidney (Mouse tolerance studies; S 1f, i.v. 3 mg/kg, mean, N 5): 265.49
- Mouse organ weight - i.v. treatment, Liver (Mouse tolerance studies; S 1f, i.v. 3 mg/kg, mean, N 5): 1316.2
- Mouse organ weight - i.v. treatment, Lungs (Mouse tolerance studies; S 1f, i.v. 3 mg/kg, mean, N 5): 151.37
- Mouse organ weight - i.v. treatment, Spleen (Mouse tolerance studies; S 1f, i.v. 3 mg/kg, mean, N 5): 70.61
- Mouse organ weight - i.v. treatment, Brain (Mouse tolerance studies; S 1f, i.v. 10 mg/kg, mean, N 5): 451.76
- Mouse organ weight - i.v. treatment, Heart (Mouse tolerance studies; S 1f, i.v. 10 mg/kg, mean, N 5): 110.14
- Mouse organ weight - i.v. treatment, Kidney (Mouse tolerance studies; S 1f, i.v. 10 mg/kg, mean, N 5): 258.06

From article PMC10300102, “In vivo inhibition of nuclear ACE2 translocation protects against SARS-CoV-2 replication and lung damage through epigenetic imprinting” (Nature Communications, 2023)
